Source: paper PMC12588083, “Validated antimalarial drug target discovery using genome-scale metabolic modeling” (Antimicrobial Agents and Chemotherapy, 2025)

Key:
[1] = system: synchronised Plasmodium falciparum 3D7 cultures; experiment: In vitro flux measurements of glucose and amino acids in spent media; format: cell-based; conditions: ± SD, positive = into infected red blood cell, negative = efflux into media; for flux 6 - 18 hps: early to mid-ring stage; for flux 42 - 48 hps: late schizont stage; for flux 30 - 36 hps: late trophozoite stage
Protocol: Cultures were synchronized with 5% sorbitol ([36]). Synchronized cultures with a total volume of 18 mL at 1% parasitemia and 5% hematocrit were placed in nonvented 75 cm^2 tissue culture flasks (Nunclon). Red blood cells at 5% hematocrit were used as control. One milliliter of culture was collected at time 0 and every 6 hours until 48 hours post synchronization. The collected sample was placed in a 1.5 mL microcentrifuge tube and centrifuged at 3,000 RPM for 2 minutes. The spent media were collected and stored at −80°C prior to analysis. Three biological replicates were analyzed.
A glucose assay on the spent media was performed using a glucose oxidase-peroxidase format assay kit (Megazyme). Amino acid concentrations in the spent media were determined using an Ultimate 3000 High-Performance Liquid Chromatography system (Dionex, UK). A ramp gradient reverse-phase chromatography was done with an Acclaim 120 C18 (Dionex, UK) 100 × 2.1 mm column (3 µm particle size, 120 Å pore size) stationary phase. Eluent A (10 mM Na2HPO4, 10 mM Na2HB4O7·10 H2O, 0.5 mM NaN3, pH 8.2) and eluent B (45% methanol [vol/vol] 45% acetonitrile [vol/vol] in water) constituted the mobile phase (Table S1).
Samples were derivatized manually within 10 minutes prior to chromatography. The derivatization procedure was done in a 1.5 mL microcentrifuge tube at room temperature by adding the following reagents in this particular order:
Spent media for both infected and uninfected (control) samples were assayed for glucose and amino acid concentrations as detailed above. The net metabolite flux from time 0 ( t0 ) to time n ( tn ) was calculated using the formula:
fluxt0-tn=vt0×∆Ci-∆Cu/gDWt0×∆t
The parasite mass gDWt0 was determined using the calculated number of parasites based on the parasitemia, hematocrit, and the volume at t0 :
In this case, it was assumed for simplicity that each infected RBC contained only one parasite. […] Flux calculations were done to represent the three main blood stage forms: the change in concentration from t6 to t18 was used to calculate the early to mid-ring stage flux, from t30 to t36 for the late trophozoite, and from t42 to t48 for the late schizont stage. […] A positive flux represents the entry of metabolites into the model, while a negative flux represents the movement of metabolites into the external environment.
Supplementary Table 5 Experimental glucose and amino acid flux measurements. […] A positive flux indicates movement of the metabolite into the infected red blood cell while a negative flux indicates efflux of the metabolite into the media.

[2] = target: recombinant PfUCK (P. falciparum UMP-CMP kinase, PfUCK-Δ23) (Plasmodium falciparum, UniProt Q8I231); experiment: Inhibition constant (Ki) determination, coupled PK/LDH NADH assay, recombinant PfUCK; format: biochemical; conditions: for Ki—PfUCK: Table 4, benzoylacetonitrile derivatives, 1 mM CMP, competitive equation
Sequence of recombinant PfUCK (P. falciparum UMP-CMP kinase, PfUCK-Δ23) (Q8I231 entry or part of it, stated change not applied): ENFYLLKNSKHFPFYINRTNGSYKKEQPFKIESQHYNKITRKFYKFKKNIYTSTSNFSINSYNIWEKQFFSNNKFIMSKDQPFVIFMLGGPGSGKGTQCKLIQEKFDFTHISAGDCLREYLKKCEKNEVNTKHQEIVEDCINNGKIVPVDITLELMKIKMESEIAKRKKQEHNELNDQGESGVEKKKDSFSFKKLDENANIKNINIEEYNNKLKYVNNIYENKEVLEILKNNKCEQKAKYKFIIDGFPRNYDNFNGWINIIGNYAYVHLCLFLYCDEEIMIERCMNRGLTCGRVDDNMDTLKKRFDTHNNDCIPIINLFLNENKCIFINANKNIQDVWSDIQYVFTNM
Protocol: The hydrophobic core at the protein’s N-terminus may cause poor expression and low solubility in E. coli. Therefore, a truncated gene was created where the ORF began at amino acid residues 24–371, encoding a 348 amino acid protein. […] Briefly, protein expression was induced with isopropyl-D-thiogalactoside, incubated at 16°C with shaking at 200 RPM for 20 hours, and the cell pellet resuspended in binding buffer (50 mM Tris [pH 7.6], 300 mM NaCl, 20 mM imidazole, 5% glycerol, and 0.075% β-mercaptoethanol), with cell disruption using an Avestin C3 Cell Disrupter. Cell debris was removed, and the UCK was purified by Ni-NTA affinity purification. The protein was eluted from the column using a linear gradient of imidazole ([…]) in elution buffer (50 mM Tris [pH 7.6], 300 mM NaCl, 5% glycerol, and 0.075% β-mercaptoethanol). […] The concentrated protein was then stored at −70°C in a storage buffer (25 mM Tris-HCl, 50 mM KCl, and 20% glycerol; pH 7.0).
The final concentration of dimethyl sulfoxide (Merck, Catalog number 472301) in the assay reaction was maintained at 1%.

P. falciparum 3D7 = experiment: Antiplasmodial activity (IC50), SYBR Green fluorescence, 48 hours; format: cell-based, Plasmodium falciparum
Protocol: P. falciparum 3D7 parasites underwent two synchronization cycles with D-sorbitol initiating the inhibitor testing. Parasitemia and hematocrit were adjusted to 0.5% and 3%, respectively. Synchronized ring parasites were cultured in 96-well plates in complete RPMI medium with varying inhibitor concentrations. Inhibitor stock solutions, mostly at 100 mM, were prepared in DMSO. […] Triplicate wells were prepared for each compound. Negative controls included wells with uninfected red cells (3% hematocrit) in complete RPMI medium.
Culture plates were incubated in a chamber with controlled gas conditions at 37°C. After 48 hours, parasites were quantified using a fluorescence-based assay with SYBR Green dye as previously described ([51]). Lysis buffer containing SYBR Green was added to each well, and plates were incubated at room temperature for 45 minutes and protected from the light. Fluorescence was measured using a microplate reader (POLARstar OPTIMA, BMG Labtech) with excitation at 485 nm and detection at 520 nm. Background fluorescence of uninfected red cells was subtracted, and dose-response curves were plotted against inhibitor concentration. IC50 values were determined using nonlinear regression curve fitting in GraphPad Prism software.

[3] = Plasmodium falciparum, 3D7, 48 h, Supplementary Table 7, benzoylacetonitrile derivatives
[4] = Supplementary Table 7, benzoylacetonitrile derivatives

| Compound | flux 6 - 18 hps [1] [mmol/gDW/hr] | flux 42 - 48 hps [1] [mmol/gDW/hr] | flux 30 - 36 hps [1] [mmol/gDW/hr] | Ki—PfUCK [2] | further results |
| --- | --- | --- | --- | --- | --- |
| N[C@@H](Cc1ccc(O)cc1)C(=O)O [L-Tyrosine] | -0.0051 ± 0.0044 | -0.046 ± 0.17 | -0.031 ± 0.031 |  |  |
| N#CCC(=O)c1cccc([N+](=O)[O-])c1 [Compound C80] |  |  |  | No inhibition at 1 mM |  |
| COc1cccc(C(=O)CC#N)c1 [Compound C65] |  |  |  | no inhibition at 1 mM |  |
| NC(=O)CC[C@H](N)C(=O)O [L-Glutamine] | 0.00 ± 0.023 | 0.36 ± 0.72 | -0.40 ± 0.63 |  |  |
| C=CC(=O)N1CCC(C(=O)NCc2cc(=O)n3ccccc3n2)CC1 [Compound C58] |  |  |  |  | Ki [2]: 2.11 ± 0.21 µM; IC50 (P. falciparum 3D7; Plasmodium falciparum, 3D7, 48 h, Table 5): > 1000 µM |
| N[C@@H](CO)C(=O)O [L-Serine] | -0.019 ± 0.021 | 0.062 ± 0.11 | -0.062 ± 0.091 |  |  |
| CC[C@H](C)[C@H](N)C(=O)O [L-Isoleucine] | 0.017 ± 0.023 | 0.081 ± 0.14 | -0.062 ± 0.14 |  |  |
| N[C@@H](CC(=O)O)C(=O)O [L-Aspartic acid] | 0.0048 ± 0.011 | 0.019 ± 0.058 | 0.00 ± 0.029 |  |  |
| N#CCC(=O)c1ccc(-c2ccccc2)cc1 [Compound C79] |  |  |  | No inhibition at 1 mM |  |
| CSCC[C@H](N)C(=O)O [L-Methionine] | 0.0024 ± 0.0082 | 0.028 ± 0.025 | -0.028 ± 0.025 |  |  |
| N#CCC(=O)c1cc(C(F)(F)F)cc(C(F)(F)F)c1 [Compound C83] |  |  |  |  | Ki [2]: 4.66 ± 0.29 µM; IC50 (P. falciparum 3D7; [3]): > 310 µM; IC50 (P. falciparum 3D7; [4]): 317 ± 50.8 µM |
| N#CCC(=O)c1cncc(Br)c1 [Compound C67] |  |  |  |  | Ki [2]: 4.38 ± 1.45 µM; IC50 (P. falciparum 3D7; [3]): 531 ± 61.2 µM |
| N[C@@H](Cc1c[nH]c2ccccc12)C(=O)O [L-Tryptophan] | 0.0026 ± 0.0045 | 0.010 ± 0.024 | 0.010 ± 0.036 |  |  |
| N=C(N)NCCC[C@H](N)C(=O)O [L-Arginine] | 0.072 ± 0.11 | 0.22 ± 0.35 | -0.15 ± 0.49 |  |  |
| N#CCC(=O)c1ccc(CN2CCOCC2)cc1 [Compound C77] |  |  |  | No inhibition at 1 mM |  |
| CC(C)[C@H](N)C(=O)O [L-Valine] | -0.036 ± 0.098 | 0.024 ± 0.12 | -0.0096 ± 0.022 |  |  |
| COc1ccc(C(=O)CC#N)cc1 [Compound C8] |  |  |  | no inhibition at 1 mM |  |
| N[C@@H](CCC(=O)O)C(=O)O [L-Glutamic acid] | -0.019 ± 0.0081 | 0.0047 ± 0.077 | -0.056 ± 0.024 |  |  |

| Compound | flux 6 - 18 hps [1] [mmol/gDW/hr] | flux 42 - 48 hps [1] [mmol/gDW/hr] | flux 30 - 36 hps [1] [mmol/gDW/hr] | Ki—PfUCK [2] | further results |
| --- | --- | --- | --- | --- | --- |
| NCC(=O)O [Glycine] | -0.014 ± 0.028 | 0.037 ± 0.17 | -0.0093 ± 0.12 |  |  |
| N#CCC(=O)c1cccc(Cl)c1Cl [Compound C64] |  |  |  | No inhibition at 1 mM |  |
| Cc1cccc(C(=O)CC#N)c1 [Compound C66] |  |  |  | No inhibition at 1 mM | IC50 (P. falciparum 3D7; [3]): > 310 µM; IC50 (P. falciparum 3D7; [4]): 310 ± 57.9 µM |
| NC(=O)C[C@H](N)C(=O)O [L-Asparagine] | -0.0094 ± 0.011 | 0.070 ± 0.17 | -0.10 ± 0.12 |  |  |
| CC(C)C[C@H](N)C(=O)O [L-Leucine] | 0.28 ± 0.065 | 0.047 ± 0.10 | -0.14 ± 0.070 |  |  |
| N[C@@H](Cc1c[nH]cn1)C(=O)O [L-Histidine] | -0.0073 ± 0.013 | 0.066 ± 0.076 | -0.066 ± 0.095 |  |  |
| N[C@@H](Cc1ccccc1)C(=O)O [L-Phenylalanine] | -0.0099 ± 0.016 | 0.025 ± 0.023 | -0.035 ± 0.0086 |  |  |
| N#CCC(=O)c1cccc(C(F)(F)F)c1 [Compound C69] |  |  |  | No inhibition at 1 mM |  |
| N#CCC(=O)c1ccc(Cl)cc1 [Compound C10] |  |  |  | No inhibition at 1 mM |  |
| NCCCC[C@H](N)C(=O)O [L-Lysine] | 0.00 ± 0.064 | 0.073 ± 0.29 | 0.038 ± 0.20 |  |  |
| C[C@H](N)C(=O)O [L-Alanine] | -0.023 ± 0.017 | 0.00 ± 0.024 | -0.041 ± 0.036 |  |  |
| OC[C@H]1OC(O)[C@H](O)[C@@H](O)[C@@H]1O (stereo partly drawn) [D-Glucose] | 1.3 ± 0.82 | 0.60 ± 0.21 | 3.2 ± 1.2 |  |  |
| C[C@@H](O)[C@H](N)C(=O)O [L-Threonine] | -0.014 ± 0.026 | 0.028 ± 0.099 | -0.038 ± 0.050 |  |  |
| N#CCC(=O)c1ccccc1 [Compound C11] |  |  |  | No inhibition at 1 mM |  |
| COC(=O)c1ccc(C(=O)CC#N)cc1 [Compound C9] |  |  |  | insoluble |  |
| N#CCC(=O)c1cccc(Br)c1 [Compound C37] |  |  |  | no inhibition at 1 mM |  |
| N#CCC(=O)c1cc(Cl)cc(Cl)c1 [Compound C62] |  |  |  | No inhibition at 1 mM |  |
